Reference: the Kinase Knowledgebase extract (Sharma et al. 2016)
In brackets after ≈: the same amount, converted by molar mass. Several values for one entry are separate records, joined by “and”; a condition that tells them apart may be missing. Equal entries are not always repeated.

Experiments:
EGFR (human) [1] = molecular target: EGFR (human) (UniProt P00533); conditions: skbr3
EGFR (human) [2] = molecular target: EGFR (human) (UniProt P00533); conditions: mda435
EGFR (human) [3] = molecular target: EGFR (human) (UniProt P00533); conditions: a2780ddp
EGFR (human) [4] = molecular target: EGFR (human) (UniProt P00533); conditions: a2780s
EGFR (human) [5] = molecular target: EGFR (human) (UniProt P00533); conditions: a431
EGFR (human) [6] = molecular target: EGFR (human) (UniProt P00533); conditions: sw 620
EGFR (human) [7] = molecular target: EGFR (human) (UniProt P00533); conditions: lox
EGFR (human) [8] = molecular target: EGFR (human) (UniProt P00533); conditions: mcf-7
EGFR (human) [9] = molecular target: EGFR (human) (UniProt P00533); conditions: 3t3
EGFR (human) [10] = molecular target: EGFR (human) (UniProt P00533); conditions: her2/3t3
EGFR = EGFR (UniProt P00533)
Chain of EGFR (P00533 whole entry, looked up): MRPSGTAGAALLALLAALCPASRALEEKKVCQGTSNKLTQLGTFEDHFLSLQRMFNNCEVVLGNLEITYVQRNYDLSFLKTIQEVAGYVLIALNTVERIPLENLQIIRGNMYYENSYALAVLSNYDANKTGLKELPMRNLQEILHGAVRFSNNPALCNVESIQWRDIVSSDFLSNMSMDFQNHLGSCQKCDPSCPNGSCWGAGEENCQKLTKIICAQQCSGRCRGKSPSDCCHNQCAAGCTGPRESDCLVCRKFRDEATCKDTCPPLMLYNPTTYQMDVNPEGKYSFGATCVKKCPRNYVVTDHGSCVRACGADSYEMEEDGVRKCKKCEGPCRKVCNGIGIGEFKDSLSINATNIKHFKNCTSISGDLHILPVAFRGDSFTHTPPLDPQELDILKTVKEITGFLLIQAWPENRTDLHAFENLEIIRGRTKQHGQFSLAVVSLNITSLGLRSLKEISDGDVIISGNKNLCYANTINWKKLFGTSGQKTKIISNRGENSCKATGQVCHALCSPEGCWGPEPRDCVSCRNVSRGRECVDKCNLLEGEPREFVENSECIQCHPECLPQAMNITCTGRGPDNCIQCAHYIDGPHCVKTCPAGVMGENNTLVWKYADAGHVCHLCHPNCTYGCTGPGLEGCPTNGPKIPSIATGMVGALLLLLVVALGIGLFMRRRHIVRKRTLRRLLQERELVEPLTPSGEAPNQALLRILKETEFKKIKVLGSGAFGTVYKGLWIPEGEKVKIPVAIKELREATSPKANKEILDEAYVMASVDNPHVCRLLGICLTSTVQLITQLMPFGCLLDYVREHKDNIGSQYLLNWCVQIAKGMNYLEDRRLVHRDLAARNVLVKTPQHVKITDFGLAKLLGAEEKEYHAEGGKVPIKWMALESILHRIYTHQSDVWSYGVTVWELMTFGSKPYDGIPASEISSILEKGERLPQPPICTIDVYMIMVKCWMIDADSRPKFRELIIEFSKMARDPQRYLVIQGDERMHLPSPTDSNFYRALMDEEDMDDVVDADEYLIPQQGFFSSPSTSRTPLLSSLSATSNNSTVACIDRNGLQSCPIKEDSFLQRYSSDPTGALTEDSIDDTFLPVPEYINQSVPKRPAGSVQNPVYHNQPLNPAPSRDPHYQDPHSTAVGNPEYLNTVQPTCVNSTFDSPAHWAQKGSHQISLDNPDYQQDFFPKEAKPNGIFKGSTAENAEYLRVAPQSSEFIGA

Chain of EGFR (human) (P00533 whole entry, looked up): as above

Compound	IC50 (EGFR (human) [1]) [µg/mL]	IC50 (EGFR (human) [2]) [µg/mL]	IC50 (EGFR (human) [3]) [µg/mL]	IC50 (EGFR (human) [4]) [µg/mL]	IC50 (EGFR (human) [5])	IC50 (EGFR (human) [6]) [µg/mL]	IC50 (EGFR (human) [7]) [µg/mL]	IC50 (EGFR (human) [8])	IC100 (EGFR (human) [5]) [µM]	IC50 (EGFR (human) [9])	IC50 (EGFR (human) [10])	IC50 (EGFR) [nM]
N#Cc1cnc2cnc(N)cc2c1Nc1cccc(Br)c1	4.1 (≈ 12.1 µM)	> 5	3.1 (≈ 9.11 µM)	3.5 (≈ 10.3 µM)	0.4 µg/mL (≈ 1.18 µM)	> 5						
COc1ccc(CNc2cc3c(Nc4cccc(Br)c4)c(C#N)cnc3cn2)cc1	2.9 (≈ 6.3 µM)	2.4 (≈ 5.21 µM)	1.8 (≈ 3.91 µM)	1 (≈ 2.17 µM)	0.4 µg/mL (≈ 0.869 µM)	4.1 (≈ 8.91 µM)						
CN(C)CCOc1cc2c(Nc3ccc(F)c(Cl)c3)c(C#N)cnc2cn1	4.63 (≈ 12 µM)	> 5			2.23 µg/mL (≈ 5.77 µM)	> 5				4.48 µg/mL (≈ 11.6 µM)	> 5 µg/mL	
CC#CC(=O)Nc1cnc2ncc(C#N)c(Nc3ccc(F)c(Cl)c3)c2c1												> 100
C[Si](C)(C)C#Cc1cc2c(Nc3cccc(Br)c3)c(C#N)cnc2cn1	3.59 (≈ 8.52 µM)	4.2 (≈ 9.97 µM)	2.97 (≈ 7.05 µM)	2.34 (≈ 5.56 µM)	3.06 µg/mL (≈ 7.25 µM)	4.72 (≈ 11.2 µM)						
N#Cc1cnc2cnc(NCCN3CCOCC3)cc2c1Nc1cccc(Br)c1		49 (≈ 108 µM)		0.5 (≈ 1.1 µM)	0.5 µg/mL (≈ 1.1 µM)	41 (≈ 90.4 µM)	57 (≈ 126 µM)					
CN(C)C/C=C/C(=O)Nc1cnc2ncc(C#N)c(Nc3cccc(Br)c3)c2c1	4.83 (≈ 10.7 µM)	> 5	4 (≈ 8.87 µM)	1.77 (≈ 3.92 µM)	2.76 µg/mL (≈ 6.12 µM)	> 5						> 800
CN(C)c1cc[n+](-c2cc3c(Nc4cccc(Br)c4)c(C#N)cnc3cn2)cc1	41	47	52	31	59 µg/mL	42	56					

Other lines, results leading:

IC50 (EGFR (human) [1]) [µg/mL]	IC50 (EGFR (human) [2]) [µg/mL]	IC50 (EGFR (human) [3]) [µg/mL]	IC50 (EGFR (human) [4]) [µg/mL]	IC50 (EGFR (human) [5])	IC50 (EGFR (human) [6]) [µg/mL]	IC50 (EGFR (human) [7]) [µg/mL]	IC50 (EGFR (human) [8])	IC100 (EGFR (human) [5]) [µM]	IC50 (EGFR (human) [9])	IC50 (EGFR (human) [10])	IC50 (EGFR) [nM]	Compound
1.88 (≈ 5.3 µM)	0.98 (≈ 2.77 µM)			0.31 µg/mL and 0.209 µg/mL	4.62 (≈ 13 µM)	3.6 (≈ 10.2 µM)	10900 nM and 3870 nM	0.59				CNc1cc2c(Nc3cccc(Br)c3)c(C#N)cnc2cn1
0.0357 (≈ 0.079 µM)	0.464 (≈ 1.03 µM)			0.088 µg/mL (≈ 0.195 µM)	0.356 (≈ 0.789 µM)				0.272 µg/mL and 0.373 µg/mL	0.106 µg/mL and 0.0436 µg/mL		CN(C)C/C=C/C(=O)Nc1cc2c(Nc3cccc(Br)c3)c(C#N)cnc2cn1
> 5	> 5	> 5	3.33 (≈ 9.7 µM)	3.92 µg/mL (≈ 11.4 µM)	> 5							N#Cc1cnc2cnc(F)cc2c1Nc1cccc(Br)c1
0.12 (≈ 0.295 µM)	0.88 (≈ 2.17 µM)	0.13 (≈ 0.32 µM)		0.23 µg/mL (≈ 0.566 µM)	0.17 (≈ 0.418 µM)	0.07 (≈ 0.172 µM)	980 nM and 400 nM					CC#CC(=O)Nc1cc2c(Nc3cccc(Br)c3)c(C#N)cnc2cn1
